What was measured:
[1] = test system: L6; assay: Cytotoxicity against rat L6 cells after 6 days by Alamar Blue fluorescence assay; type: cell-based; conditions: L6, 144 h
[2] = Selectivity index, ratio of IC50 for rat L6 cells to IC50 for Trypanosoma brucei Lister 427; type: toxicity, cell-based; conditions: L6 cells (versus Trypanosoma brucei Lister 427), read-out: Ratio IC50
[3] = test system: Trypanosoma brucei; assay: Antitrypanosomal activity against Trypanosoma brucei Lister 427 after 2 days by Alamar Blue fluorescence assay; type: functional, organism-based; conditions: Lister 427, 48 h

SMILES | IC50 [1] [µM] | selectivity ratio [2] | IC50 [3] [nM] | IC90 [3] [µM]
NC1=NCC(C23CC4CC(CC(C5CCCC5)(C4)C2)C3)N1 (stereo not drawn) | 17.2 | 7.9 | 2170 | 2.63
NC1=NCC(C23CC4CC(CC(C5CCCC5)(C4)C2)C3)N1c1ccccc1 (stereo not drawn) | – | – | 11100 | 15.5
CC1=NCC(C23CC4CC(CC(c5ccccc5)(C4)C2)C3)N1 (stereo not drawn) | – | – | 4880 | 8.11
CN1C=NCC1C12CC3CC(CC(C4CCCC4)(C3)C1)C2 (stereo not drawn) | 5.77 | 3.9 | 1500 | 1.83
C1=NCC(C23CC4CC(CC(C5CCCC5)(C4)C2)C3)N1c1ccccc1 (stereo not drawn) | – | – | 16400 | 24.2
NC1=NCC(C23CC4CC(CC(C5CCCCC5)(C4)C2)C3)N1 (stereo not drawn) | 19 | 10.2 | 1860 | 2.52
C1=NCC(C23CC4CC(CC(C5CCCC5)(C4)C2)C3)N1C1CCCCC1 (stereo not drawn) | 3.46 | 1.9 | 1820 | 2.41
NC1=NCC(C23CC4CC(CC(C5CCCC5)(C4)C2)C3)N1C1CCCCC1 (stereo not drawn) | 3.22 | 5 | 650 | 0.84
CC1=NCC(C23CC4CC(CC(C5CCCC5)(C4)C2)C3)N1 (stereo not drawn) | 3.56 | 1.6 | 2160 | 2.77
CC1=NCC(C23CC4CC(CC(C5CCCC5)(C4)C2)C3)N1C (stereo not drawn) | 3.77 | 1.3 | 2970 | 4.51
NC12CC3CC(CC(C3)C1)C2 [AMANTADINE] | – | – | > 132000 | > 132
CN1C(N)=NCC1C12CC3CC(CC(C4CCCCC4)(C3)C1)C2 (stereo not drawn) | 7.39 | 4.3 | 1720 | 2.35
C1=NCC(C23CC4CC(CC(C5CCCCC5)(C4)C2)C3)N1 (stereo not drawn) | 7.22 | 2.5 | 2890 | 4.2
CN1C(N)=NCC1C12CC3CC(CC(C4CCCC4)(C3)C1)C2 (stereo not drawn) | 11.7 | 7.1 | 1650 | 2.23
CC1=NCC(C23CC4CC(CC(c5ccccc5)(C4)C2)C3)N1C (stereo not drawn) | – | – | 7160 | 10.3
CC(N)C12CC3CC(CC(C3)C1)C2 (stereo not drawn) [RIMANTADINE] | – | – | – | 14
C1=NCC(C23CC4CC(CC(c5ccccc5)(C4)C2)C3)N1 (stereo not drawn) | – | – | 7090 | 9.02
C1=NCC(C23CC4CC(CC(C5CCCC5)(C4)C2)C3)N1 (stereo not drawn) | 3.7 | 2.4 | 1570 | 2.42
NC1=NCC(C23CC4CC(CC(c5ccccc5)(C4)C2)C3)N1 (stereo not drawn) | – | – | 7390 | 11.8
CN1C=NCC1C12CC3CC(CC(c4ccccc4)(C3)C1)C2 (stereo not drawn) | – | – | 7910 | 13.1
CN1C(N)=NCC1C12CC3CC(CC(c4ccccc4)(C3)C1)C2 (stereo not drawn) | – | – | 4530 | 5.58
